Tests used:
Settings in all cases: 48 h
NOMO1 [1] = assay: cell viability relative to DMSO control; higher = less cytotoxic
In short: (§1)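 Viability is expressed as a percentage of DMSO wells within each plate, and cell-free wells serve as background. Seeding densities in the 1536-well plates (5 μl) were 500 cells/well for NOMO1 or SEM leukemia cells and 1000 cells/well for P12-Ichikawa. Each line was adapted for at least four passages in each medium. Library compounds in DMSO were pin-dosed at 47 μM to 0.79 nM (11 points, threefold), and CellTiter-Glo One luminescence was read after 48 h at 37°C.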

P12-Ichikawa [2] = assay: as above
In short: as §1

SEM cells [3] = assay: as above
In short: as §1

NOMO1 [4] = assay: AUC of viability dose-response curve (% viability x log10 dose units); higher = less sensitive
In short: (§2)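 Medium-adapted leukemia cells in 1536-well plates, at 500 or 1000 cells/well, were incubated for 48 h at 37°C with library compounds in DMSO at 11 threefold doses from 47 μM to 0.79 nM. CellTiter-Glo One luminescence normalised per plate to DMSO and cell-free wells was fitted with a four-parameter log-logistic model over log10 doses. Area under the curve was integrated from this fit by trapezoidal rule, with curves beyond full viability scaled and failed quality-control curves removed.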

P12-Ichikawa [5] = assay: as above
In short: as §2

SEM cells [6] = assay: as above
In short: as §2

O=C(Nc1cc(Cl)cc2c1[nH]c1cnccc12)c1cccnc1
cell viability [%]
Settings | NOMO1 [1] | P12-Ichikawa [2] | SEM cells [3]
HPLM + 10% dialyzed FBS, 0.000781 µM | – | 116 | 121
HPLM + 10% dialyzed FBS, 0.00234 µM | – | 121 | 121
HPLM + 10% dialyzed FBS, 0.00702 µM | – | 123 | 116
HPLM + 10% dialyzed FBS, 0.0211 µM | – | 121 | 134
HPLM + 10% dialyzed FBS, 0.0632 µM | – | 121 | 124
HPLM + 10% dialyzed FBS, 0.19 µM | – | 122 | 122
HPLM + 10% dialyzed FBS, 0.569 µM | – | 127 | 118
HPLM + 10% dialyzed FBS, 1.71 µM | – | 115 | 141
HPLM + 10% dialyzed FBS, 5.12 µM | – | 121 | 133
HPLM + 10% dialyzed FBS, 15.4 µM | – | 113 | 127
HPLM + 10% dialyzed FBS, 46.1 µM | – | 106 | 113
RPMI 5 mM glucose + 10% FBS, 0.000781 µM | – | 124 | 109
RPMI 5 mM glucose + 10% FBS, 0.00234 µM | – | 118 | 108
RPMI 5 mM glucose + 10% FBS, 0.00702 µM | – | 118 | 96.3
RPMI 5 mM glucose + 10% FBS, 0.0211 µM | – | 129 | 117
RPMI 5 mM glucose + 10% FBS, 0.0632 µM | – | 119 | 126
RPMI 5 mM glucose + 10% FBS, 0.19 µM | – | 116 | 125
RPMI 5 mM glucose + 10% FBS, 0.569 µM | – | 117 | 128
RPMI 5 mM glucose + 10% FBS, 1.71 µM | – | 118 | 129
RPMI 5 mM glucose + 10% FBS, 5.12 µM | – | 114 | 138
RPMI 5 mM glucose + 10% FBS, 15.4 µM | – | 114 | 121
RPMI 5 mM glucose + 10% FBS, 46.1 µM | – | 109 | 124
RPMI 5 mM glucose + 10% dialyzed FBS, 0.000781 µM | 118 | – | 113
RPMI 5 mM glucose + 10% dialyzed FBS, 0.00234 µM | 114 | – | 107
RPMI 5 mM glucose + 10% dialyzed FBS, 0.00702 µM | 124 | – | 109
RPMI 5 mM glucose + 10% dialyzed FBS, 0.0211 µM | 110 | – | 108
RPMI 5 mM glucose + 10% dialyzed FBS, 0.0632 µM | 110 | – | 100
RPMI 5 mM glucose + 10% dialyzed FBS, 0.19 µM | 124 | – | 98.5
RPMI 5 mM glucose + 10% dialyzed FBS, 0.569 µM | 131 | – | 116
RPMI 5 mM glucose + 10% dialyzed FBS, 1.71 µM | 123 | – | 125
RPMI 5 mM glucose + 10% dialyzed FBS, 5.12 µM | 117 | – | 123
RPMI 5 mM glucose + 10% dialyzed FBS, 15.4 µM | 109 | – | 128
RPMI 5 mM glucose + 10% dialyzed FBS, 46.1 µM | 109 | – | 117

AUC of viability dose-response curve
Settings | NOMO1 [4] | P12-Ichikawa [5] | SEM cells [6]
HPLM + 10% dialyzed FBS | 467 | 471 | 468
RPMI 5 mM glucose + 10% FBS | 477 | 461 | 452
RPMI 5 mM glucose + 10% dialyzed FBS | 471 | 457 | 437

O=C(c1ccc(OCCN2CCCCC2)cc1)c1c(-c2ccc(O)cc2)sc2cc(O)ccc12
Settings | cell viability [%]
NOMO1 [1], HPLM + 10% dialyzed FBS, 0.000781 µM | 121
NOMO1 [1], HPLM + 10% dialyzed FBS, 0.00234 µM | 119
NOMO1 [1], HPLM + 10% dialyzed FBS, 0.00702 µM | 134
NOMO1 [1], HPLM + 10% dialyzed FBS, 0.0211 µM | 135
NOMO1 [1], HPLM + 10% dialyzed FBS, 0.0632 µM | 150
NOMO1 [1], HPLM + 10% dialyzed FBS, 0.19 µM | 145
NOMO1 [1], HPLM + 10% dialyzed FBS, 0.569 µM | 143
NOMO1 [1], HPLM + 10% dialyzed FBS, 1.71 µM | 133
NOMO1 [1], HPLM + 10% dialyzed FBS, 5.12 µM | 123
NOMO1 [1], HPLM + 10% dialyzed FBS, 15.4 µM | 126
NOMO1 [1], HPLM + 10% dialyzed FBS, 46.1 µM | 89.9
SEM cells [3], RPMI 5 mM glucose + 10% FBS, 0.000781 µM | 108
SEM cells [3], RPMI 5 mM glucose + 10% FBS, 0.00234 µM | 122
SEM cells [3], RPMI 5 mM glucose + 10% FBS, 0.00702 µM | 122
SEM cells [3], RPMI 5 mM glucose + 10% FBS, 0.0211 µM | 133
SEM cells [3], RPMI 5 mM glucose + 10% FBS, 0.0632 µM | 113
SEM cells [3], RPMI 5 mM glucose + 10% FBS, 0.19 µM | 42
SEM cells [3], RPMI 5 mM glucose + 10% FBS, 0.569 µM | 133
SEM cells [3], RPMI 5 mM glucose + 10% FBS, 1.71 µM | 94.1
SEM cells [3], RPMI 5 mM glucose + 10% FBS, 5.12 µM | 85.3
SEM cells [3], RPMI 5 mM glucose + 10% FBS, 15.4 µM | 117
SEM cells [3], RPMI 5 mM glucose + 10% FBS, 46.1 µM | 68.9

AUC of viability dose-response curve
Settings | NOMO1 [4] | P12-Ichikawa [5] | SEM cells [6]
HPLM + 10% dialyzed FBS | 466 | 442 | 413
RPMI 5 mM glucose + 10% FBS | 475 | 442 | 415
RPMI 5 mM glucose + 10% dialyzed FBS | 462 | 413 | 384

CCN1CCN(CC1)CC(=O)NC2=CC=C(C3=C2C4=C(S3)C=CC=C4)C5=C6O\C(=C/C(=O)C6=CC=C5)N7CCOCC7
cell viability [%]
Settings | HPLM + 10% dialyzed FBS | RPMI 5 mM glucose + 10% FBS | RPMI 5 mM glucose + 10% dialyzed FBS
NOMO1 [1], 0.000781 µM | 108 | 116 | 120
NOMO1 [1], 0.00234 µM | 121 | 115 | 120
NOMO1 [1], 0.00702 µM | 122 | 123 | 131
NOMO1 [1], 0.0211 µM | 123 | 120 | 118
NOMO1 [1], 0.0632 µM | 117 | 128 | 128
NOMO1 [1], 0.19 µM | 124 | 129 | 128
NOMO1 [1], 0.569 µM | 121 | 130 | 109
NOMO1 [1], 1.71 µM | 94.2 | 120 | 110
NOMO1 [1], 5.12 µM | 79.7 | 98 | 77.8
NOMO1 [1], 15.4 µM | 63.6 | 74.5 | 64.3
NOMO1 [1], 46.1 µM | 75.3 | 86.1 | 99.1
SEM cells [3], 0.000781 µM | 107 | 117 | 137
SEM cells [3], 0.00234 µM | 98.2 | 108 | 122
SEM cells [3], 0.00702 µM | 109 | 107 | 123
SEM cells [3], 0.0211 µM | 106 | 95.2 | 116
SEM cells [3], 0.0632 µM | 111 | 124 | 105
SEM cells [3], 0.19 µM | 93.4 | 91.7 | 110
SEM cells [3], 0.569 µM | 88.4 | 82.3 | 88.6
SEM cells [3], 1.71 µM | 30 | 55.6 | 71.3
SEM cells [3], 5.12 µM | 18 | 14.4 | 24
SEM cells [3], 15.4 µM | 8.23 | 8.04 | 9.66
SEM cells [3], 46.1 µM | 30.3 | 27.8 | 27.2

AUC of viability dose-response curve
Settings | NOMO1 [4] | P12-Ichikawa [5] | SEM cells [6]
HPLM + 10% dialyzed FBS | 420 | 464 | 337
RPMI 5 mM glucose + 10% FBS | 442 | 447 | 337
RPMI 5 mM glucose + 10% dialyzed FBS | 432 | 453 | 338

O=c1[nH]c2ccccc2n1CCCN1CCC(n2c(=O)[nH]c3cc(Cl)ccc32)CC1
NOMO1 [1], RPMI 5 mM glucose + 10% FBS
Settings | cell viability [%]
0.000781 µM | 124
0.00234 µM | 146
0.00702 µM | 123
0.0211 µM | 134
0.0632 µM | 151
0.19 µM | 149
0.569 µM | 137
1.71 µM | 116
5.12 µM | 131
15.4 µM | 146
46.1 µM | 122

AUC of viability dose-response curve
Settings | NOMO1 [4] | P12-Ichikawa [5] | SEM cells [6]
HPLM + 10% dialyzed FBS | 459 | 467 | 448
RPMI 5 mM glucose + 10% FBS | 466 | 460 | 473
RPMI 5 mM glucose + 10% dialyzed FBS | 472 | 470 | 475

— the supplement of paper PMC11451515
